Data taken from patent US11279682B2 (H. Lundbeck A/S, priority 2015, dated 2022).
Read-outs that look alike come from different tables or passages of the source.

Columns and labels:
[1] = cited from earlier work
[2] = Intrinsic dissolution rate, spinning-disc method; assay type: physicochemical; settings: for IDR (mean of 2 determinations (mg/cm2/min)): 50 mM Tris at pH 6.8, 37° C./200 RPM, as free base
Experimental: The intrinsic dissolution rate (IDR) is expressed as mg vortioxetine dissolved per cm^2 surface per min. The intrinsic dissolution rate is measured using the “spinning-disc method” (μDISS Profiler Instrument from Pion Instruments).
In order to define the surface from which the test compound dissolves, miniaturized disks of compacted pure test compound are made (10 mg). The disk holding the test compound is inserted into a Teflon cup containing an imbedded magnet. The cup is inserted into a vial containing 20 ml dissolution medium (37° C./200 RPM). The dissolved test compound is measured by a fibre optic detection system (200-400 nm). The concentration is determined by comparison with a standard solution and the calculated amount of test compound released (as free base) per surface area is plotted versus time. The slope gives the intrinsic dissolution rate. The measurements are performed in duplicate. The dissolution medium was 50 mM Tris at pH 6.8. Vortioxetine HBr β-form is defined in WO 2007/144005 (see e.g. example 4c and 4d).

[3] = Gelling experiments (vortioxetine pyroglutamate, a salt and water in a vial, left upside down); assay type: physicochemical
Excerpt: In one embodiment, the invention relates to a gel comprising vortioxetine pyroglutamate, a salt and water. […] A gel of the present invention is particularly useful for oral administration because it is easily swallowed compared to other oral administration forms, in particular tablets and capsules. A gel of the present invention may comprise other ingredients known in pharmaceutical science, in particular taste modifiers, as discussed above. In the present context and in line with the USP definition of a gel, a gel is intended to indicate a semisolid system consisting of either small […] or large organic molecules interpenetrated by a liquid. A gel thus presents as a coherent, viscous, plastic or non-disintegrating phase. […] In one embodiment, said gel comprises 0.1 M-1 M salt, such as 0.1 M-0.5 M salt, such as 0.1 M-0.3 M salt. […] The amounts of vortioxetine pyroglutamate are indicated as free base. It is the experience of the inventors that the volume of the aqueous phase and the final gel are roughly similar when the gel comprises a therapeutically relevant dose in a therapeutically relevant volume.
The gelling experiments were carried out in a 4 ml cylindrical vial with an inner diameter of approximately 1 cm.

[4] = Dynamic Vapour Sorption (hygroscopicity); assay type: physicochemical; settings: for Water absorbed (DVS, change in mass): humidity up to / at 95% relative humidity, 25° C.
Experimental: Dynamic Vapour Sorption spectra were obtained on equipment from SMS Systems (DVS Advantage). The change in mass (relative to the dry state) of a sample (10-20 mg) was determined as a function of the relative humidity (P/P0) at 25° C.

[5] = known salts, values from the cited reference
[6] = Example 1: 5.5 mg, potassium bromide in water 0.17 M, 1.0 mL, 4 mL vial
[7] = Example 3: 6.2 mg, sodium bromide total 0.26 M, 1.0 mL, 4 mL vial
[8] = Example 4: 10.7 mg, sodium bromide total 0.20 M, 1.0 mL, 4 mL vial
[9] = Example 5: 0.80 g, sodium chloride in water 0.20 M, 100 mL, 250 mL round-bottomed flask
[10] = Example 6: 8.0 mg, sodium chloride total 0.26 M, 1.0 mL, 4 mL vial
[11] = Example 7: 11.2 mg, sodium chloride total […], 1.0 mL, 4 mL vial
[12] = Example 9: 14 mg, sodium chloride 26 mg and water 2.0 mL, 4 mL vial
[13] = Example 2: 10.2 mg, potassium bromide in water 0.23 M, 1.0 mL, 4 mL vial
[14] = Example 8: 7.6 mg, sodium bromide in water 0.18 M, 1.0 mL, 4 mL vial

Br.Cc1ccc(Sc2ccccc2N2CCNCC2)c(C)c1
Solubility ([1]; (Calculated), WO 2014/044721): 3000 to 3800 µg/mL

O=C1CCC(C(=O)O)N1 (racemic) [DL-Pyroglutamate]
IDR (mean of 2 determinations (mg/cm2/min)) [2]: 14.7 mg/cm2/min

CC(O)C(=O)O.Cc1ccc(Sc2ccccc2N2CCNCC2)c(C)c1 [DL-lactate β-form]
Solubility [1, 5]: 8000 µg/mL

Br.Cc1ccc(Sc2ccccc2N2CCNCC2)c(C)c1 [HBr β-form, reference compound]
IDR (mean of 2 determinations (mg/cm2/min)) [2]: 0.10 mg/cm2/min | Solubility [1, 5]: 1200 µg/mL

Cc1ccc(Sc2ccccc2N2CCNCC2)c(C)c1.Cl [HCl]
Solubility [1, 5]: 3000 µg/mL

CC(O)C(=O)O.Cc1ccc(Sc2ccccc2N2CCNCC2)c(C)c1.O [L-lactate Monohydrate2]
Solubility [1, 5]: 26000 µg/mL

Cc1ccc(Sc2ccccc2N2CCNCC2)c(C)c1.O.O=C1CCC(C(=O)O)N1 [vortioxetine (DL)-pyroglutamate MH]
Standing time until a clear gel was formed [3, 6]: less than 1 minute | Time vial left upside down with gel properties maintained [3, 6]: more than 1 hour | Standing time until a clear gel was formed [3, 7]: less than 1 minute | Time vial left upside down with gel properties maintained [3, 7]: more than 30 minutes | Standing time until a clear gel was formed [3, 8]: less than 1 minute | Time vial left upside down with gel properties maintained [3, 8]: more than 1 hour | Standing time until a clear gel was formed [3, 9]: 2 min | Time flask left upside down with gel properties maintained [3, 9]: more than 30 minutes | Standing time until a clear gel was formed [3, 10]: 6 min | Time vial left upside down with gel properties maintained [3, 10]: more than 1 hour | Standing time until a clear gel was formed [3, 11]: 5 min | Time vial left upside down with gel properties maintained [3, 11]: more than 30 minutes | Standing time until gel was formed [3, 12]: less than 1 minute | Time vial left upside down with gel properties maintained [3, 12]: more than 10 minutes | Hygroscopicity (DVS) ([4]; at 95% relative humidity): hygroscopic | Water absorbed (DVS, change in mass) [4]: more than 10% | Hygroscopicity (DVS) ([4]; up to 80% relative humidity at 25° C.): not hygroscopic

Cc1ccc(Sc2ccccc2N2CCNCC2)c(C)c1.O=C1CCC(C(=O)O)N1 [vortioxetine (DL)-pyroglutamate α-form]
Standing time until a clear gel was formed [3, 13]: less than 1 minute | Time vial left upside down with gel properties maintained [3, 13]: more than 1 hour | Hygroscopicity (DVS) ([4]; DVS spectrum up to 95% relative humidity): not hygroscopic | Water absorbed (DVS, change in mass) ([4]; listed as vortioxetine (DL)pyroglutamate α-form): Less than 0.3%

Cc1ccc(Sc2ccccc2N2CCNCC2)c(C)c1.O=C1CCC(C(=O)O)N1 [vortioxetine (L)-pyroglutamate, Vortioxetine (L)-pyroglutamate]
Standing time until a clear gel was formed [3, 14]: less than 1 minute | Time vial left upside down with gel properties maintained [3, 14]: more than 30 minutes | Water absorbed (DVS, change in mass) [4]: 2.7% | IDR (mean of 2 determinations (mg/cm2/min)) [2]: 14.9 mg/cm2/min

Cc1ccc(Sc2ccccc2N2CCNCC2)c(C)c1.O=C1CCC(C(=O)O)N1 [vortioxetine pyroglutamate]
Dissolution rate compared to the HBr salt ([2]; Example 18): markedly higher dissolution rate

Maleate
Solubility [1, 5]: 1000 µg/mL

Phosphate
Solubility [1, 5]: 1000 µg/mL
